From patent US5521173A, “Tricyclic benzazepine vasopressin antagonists” (American Home Products Corporation, priority 1995, dated 1996)

Assays:
Rat Hepatic V1 Receptors = target: T1, Rat Hepatic V1 Receptors (Rattus norvegicus, UniProt P30560); test: Binding Assay to Rat Hepatic V1 Receptors; details: rat hepatic V1 (no asterisk)
T1 construct: Rat liver plasma membranes expressing the vasopressin V1 receptor subtypes; from tissue; host or cells: rat liver plasma membranes (sucrose density gradient)
Experimental: Binding Assay to Rat Hepatic V1 Receptors
Rat liver plasma membranes expressing the vasopressin V1 receptor subtypes are isolated by sucrose density gradient according to the method described by Lesko et al., (1973). These membranes are quickly suspended in 50.0 mM Tris.HCl buffer, pH 7.4, containing 0.2% bovine serum albumin (BSA) and 0.1 mM phenylmethylsulfonylfluoride (PMSF) and kept frozen at -70° C. until used in subsequent binding experiments. […]
For test compounds, these are solubilized in 50% dimethylsulfoxide (DMSO) and added in 20.0 μl volume to a final incubation volume of 200 μl. […] The radioactivity trapped on the filter disk by the ligand-receptor complex is assessed by liquid scintillation counting in a Packard LS Counter, with an efficiency of 65% for tritium. The data are analyzed for IC50 values by the LUNDON-2 program for competition (LUNDON SOFTWARE, Ohio).

oxytocin receptors = target: T2, oxytocin receptors (Rattus norvegicus, UniProt P70536); test: Oxytocin Receptor Binding; set-up: species or system rat (female Sprague-Dawley); details: for IC50: 1.0 nM [3H]OT
T2 construct: The uteri are dissected out, cleaned of fat and connective tissues; from tissue; host or cells: uteri of DES-treated female Sprague-Dawley rats
T2 sequence (P70536 1-388): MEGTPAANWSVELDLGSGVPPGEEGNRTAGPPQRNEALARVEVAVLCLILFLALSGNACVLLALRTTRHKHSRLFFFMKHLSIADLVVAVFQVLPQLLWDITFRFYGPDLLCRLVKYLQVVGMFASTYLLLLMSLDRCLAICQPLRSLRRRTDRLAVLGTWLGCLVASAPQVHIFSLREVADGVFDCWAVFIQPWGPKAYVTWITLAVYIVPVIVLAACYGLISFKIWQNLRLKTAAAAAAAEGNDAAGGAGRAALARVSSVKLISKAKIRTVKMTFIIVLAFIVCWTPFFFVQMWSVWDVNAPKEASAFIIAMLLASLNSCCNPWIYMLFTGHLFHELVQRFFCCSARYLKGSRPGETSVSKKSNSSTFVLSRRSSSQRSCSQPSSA
Experimental: Oxytocin Receptor Binding
Female Sprague-Dawley rats weighing approximately 200-250 g are injected intramuscularly (i.m.) with 0.3 mg/kg of body weight of diethylstilbestrol (DES). The rats are sacrificed 18 hours later under pentobarbital anesthesia. The uteri are dissected out, cleaned of fat and connective tissues and rinsed in 50 ml of normal saline. The tissue pooled from six rats is homogenized in 50 ml of […] Tris.HCl, containing 0.5 mM dithiothreitol and 1.0 mM EDTA, adjusted to pH 7.4, using a polytron at setting 6 with three passes of 10 sec each. The homogenate is passed through two (2) layers of cheesecloth and the filtrate centrifuged at 1000× g for 10 min. The clear supernatant is removed and recentrifuged at 165,000× g for 30 min. The resulting pellet containing the oxytocin receptors is resuspended in 50.0 mM Tris.HCl containing 5.0 mM MgCl2 at pH 7.4, to give a protein concentration of 2.5 mg/ml of tissue suspension. This preparation is used in subsequent binding assays with [^3 H]Oxytocin.
Binding of 3,5-[^3 H]Oxytocin ([^3 H]OT) to its receptors is done in microtiter plates using [^3 H]OT, at various concentrations, in an assay buffer of 50.0 mM Tris.HCl, pH 7.4 and containing 5.0 mM MgCl2, and a mixture of protease inhibitors: BSA, 0.1 mg; aprotinin, 1.0 mg; 1,10-phenanthroline, 2.0 mg; […], 10.0 mg; and PMSF, 0.3 mg per 100 ml of buffer solution. Non-specific binding is determined in the presence of 1.0 uM unlabeled OT. The binding reaction is terminated after 60 min., at 22° C., by rapid filtration through glass fiber filters using a Brandel, cell harvester (Biomedical Research and Development Laboratories,Inc., Gaithersburg, Md.). Competition experiments are conducted at equilibrium using 1.0 nM [^3 H]OT and varying the concentration of the displacing agents. The concentrations of agent displacing 50% of [^3 H]OT at its sites (IC50) are calculated by a computer assisted LUNDON-2 program (LUNDON SOFTWARE INC., Ohio, USA).

Vasopressin V1 = Vasopressin V1 Antagonist Activity in Conscious Rats (vasopressin vasopressor response); type: in vivo, rat; details: 10 mg/kg iv; for Max % Inhibition: vasopressin vasopressor response
Experimental: Vasopressin V1 Antagonist Activity in Conscious Rats Conscious rats are restrained in a supine position with elastic tape. The area at the base of the tail is locally anesthetized by subcutaneous in filtration with 2% procaine (0.2 ml). Using aseptic technique the ventral caudal tail artery is isolated and a cannula made of PE 10 and 20 (heat-fused) tubing is passed into the lower abdominal aorta. The cannula is secured, heparinized (1000 i.u./cc), sealed and the wound closed with one or two stitches of Dexon 4-0. The caudal vein is also cannulated in the same manner for intravenous drug administration. The duration of the surgery is approximately 5 minutes. Additional local anesthesia (2% procaine or lidocaine) is provided as needed. The animals are placed in plastic restraining cages in an upright position. The cannula is attached to a Statham P23Db pressure transducer and pulsatile blood pressure is recorded. […] Percentage of antagonism by the compound is calculated using the pre-drug vasopressin vasopressor response as 100%. The results of this test on representative compounds of this invention in which the dose, the maximum % inhibition and the time in minutes, are shown in Table III.

T1 sequence (P30560 whole entry): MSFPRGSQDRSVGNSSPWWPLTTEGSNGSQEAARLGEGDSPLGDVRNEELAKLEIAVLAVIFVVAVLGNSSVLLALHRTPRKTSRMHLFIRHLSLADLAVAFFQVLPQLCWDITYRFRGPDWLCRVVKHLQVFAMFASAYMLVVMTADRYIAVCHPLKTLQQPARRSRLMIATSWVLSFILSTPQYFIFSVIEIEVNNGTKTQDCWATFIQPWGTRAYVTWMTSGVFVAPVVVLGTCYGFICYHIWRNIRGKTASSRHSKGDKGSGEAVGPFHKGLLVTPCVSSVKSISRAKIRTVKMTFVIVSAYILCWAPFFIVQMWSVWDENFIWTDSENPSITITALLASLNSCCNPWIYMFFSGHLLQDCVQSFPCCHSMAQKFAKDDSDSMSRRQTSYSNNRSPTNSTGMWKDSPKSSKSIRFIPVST

Row | IC50 (Rat Hepatic V1 Receptors) [nM] | inhibition at 10 µM (oxytocin receptors) [%] | IC50 (oxytocin receptors) [nM] | Structure (SMILES) | Time (of maximum % inhibition) (Vasopressin V1) [min] | Max % Inhibition (Vasopressin V1) [%]
1 | 400 | 100 | 130 | O=C(c1ccc(-c2ccccn2)cc1)N1Cc2cccn2Cc2ccccc21 [Example 9, 10,11-Dihydro-10-[4-(2-pyridinyl)benzoyl]-5H-pyrrolo[2,1-c][1,4]benzodiazepine] | 30 | 70
2 | 670 | 95 | 1270 | O=C(c1ccc(-c2ccccc2C(F)(F)F)cc1)N1Cc2cccn2Cc2ccccc21 [Example 8] |  | 

More lines, now with the values behind:

Row | Structure (SMILES) | IC50 (Rat Hepatic V1 Receptors) [nM] | inhibition at 10 µM (oxytocin receptors) [%] | IC50 (oxytocin receptors) [nM] | Time (of maximum % inhibition) (Vasopressin V1) [min] | Max % Inhibition (Vasopressin V1) [%]
3 | O=C(c1ccc(-c2ccccc2)cc1)N1Cc2ccnn2Cc2ccccc21 [Example 7, 5-([1,1'-Biphenyl]-4-ylcarbonyl)-5,10-dihydro-4H-pyrazolo[5,1-c][1,4]benzodiazepine] |  | 100 | 230 | 30 | 90
4 | O=C(c1ccc(-c2cc(F)cc(F)c2)cc1)N1Cc2cccn2Cc2ccccc21 [Example 3, 10,11-Dihydro-10-[4-(3,5-difluorophenyl)benzoyl]-5H-pyrrolo[2,1-c][1,4]benzodiazepine] |  | 89 | 2600 | 30 | 92
5 | O=C(c1ccc(-c2ccccc2)cc1)N1Cc2cccn2Cc2ccccc21 [Example 19, 10-([1,1'-Biphenyl]-4-ylcarbonyl)-10,11-dihydro-5H-pyrrolo[2,1-c][1,4]benzodiazepine] |  | 81 | 43 | 30 | 60
